Tests used:
[1] = tested on: BT474 and HN5 tumor cell lines; assay: Celltiter Glo growth inhibition assay (cellular Method B); assay type: cell-based; settings: Homo sapiens, BT-474, 72 h, 3 days, read-out: Activity (Method): growth inhibition IC50 class
Description: (§1) Human breast tumor cells (BT474) were cultured in RPMI, (Invitrogen, 22400) containing 10% fetal bovine serum (FBS). Human head and neck tumor cells (HN5) were cultured in low glucose DMEM (Invitrogen, 12320) containing 10% FBS. Human colon tumor cells (Colo205) were cultured in DMEM (Invitrogen, 10564) containing 10% FBS. All cell lines were maintained at 37° C. in a humidified 5% CO2, 95% air incubator. Cells were harvested using trypsin/EDTA, counted using a haemocytometer, and plated in 30 microliters of the appropriate media described above, at the following densities, in a half area, black-walled, 96-well tissue culture plate (Corning 3882): BT474 3,000 cells/well, HN5 500 cells/well and Colo205 cells, 3,000 cells/well. The next day, compounds were diluted in DMEM containing […] gentamicin, from 10 mM stock solutions in DMSO. 30 microliters/well of these dilutions were added to the 30 microliters/well of media currently on the cell plates. Medium containing 0.6% DMSO was added to control wells. The final concentration of DMSO in all wells was 0.3%. Cells were incubated at 37° C., 5% CO2 for 3 days. Cell biomass was estimated using Celltiter Glo (Promega G7571). Briefly, plates were removed from the incubator and allowed to equilibrate to rt for 30 minutes. 60 microliters of Celltiter Glo reagent were added to each well of the treated cells and plates were shaken on an orbital plate shaker for 2 min. Plates were incubated without shaking for 30 more min and read in a luminometer with an integration time of 0.5 seconds per well. Percent inhibition of cell growth was calculated relative to vehicle treated control wells. Concentration of compound that inhibits 50% of vehicle control cell growth (IC50) was interpolated using nonlinear regression (Levenberg-Marquardt) and the equation, y=Vmax*(1−(x/(K+x)))+Y2, where “K” was equal to the IC50.

Colo205 tumor cell lines = assay: Celltiter Glo growth inhibition assay (cellular Method B), Colo205; assay type: cell-based; settings: Homo sapiens, COLO 205, 72 h, 3 days, read-out: Activity (Method): growth inhibition IC50 class
Description: as §1

ErbB2 or EGFR = target: T1, ErbB2 or EGFR; assay: ErbB family substrate phosphorylation enzyme assay (HTRF), Method A or Method B; assay type: biochemical; settings: Method B: enzyme mix pre-incubated with compound 1 hour at 20° C., started with substrate mix
T1 construct: enzymes purified from a baculovirus expression system; Reagent production was conducted essentially as described in Brignola, P. S., et al, (2002) J. Biol. Chem. 277(2): 1576-1585
Procedure, shortened: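 Baculovirus-expressed EGFR or ErbB2 (0.8 or 10 nM in enzyme mix) phosphorylates biotinylated Peptide C with 20 µM ATP and 0.8 µM peptide (substrate-mix levels), MnCl2, pH 7.5. Reaction ran 90 min at 20 °C with EDTA stop and HTRF anti-phosphotyrosine read. Method A: enzyme added last; Method B: 1 h enzyme–compound preincubation.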

| SMILES | IC50 [1] [nM] | IC50 (Colo205 tumor cell lines) [nM] | Activity (Method): pIC50 class against ErbB2 or EGFR (ErbB2 or EGFR) |
| --- | --- | --- | --- |
| CS(=O)(=O)NCCOc1ccc(Nc2nccc(-c3c(-c4cccc(NC(=O)c5c(F)cccc5F)c4)nn4ccccc34)n2)cc1Cl [Example 163, N-{3-[3-(2-{[3-Chloro-4-({2-[(methylsulfonyl)amino]ethyl}-oxy)phenyl]amino}-4-pyrimidinyl)pyrazolo[1,5-a]pyridin-2-yl]phenyl}-2,6-difluorobenzamide] | < 100 | < 100 | +++ (B) (at least one pIC50 measurement of greater than 7 against either ErbB2 or EGFR) |
| CS(=O)(=O)CCNCc1cccc(Nc2nccc(-c3c(-c4cccc(NC(=O)c5c(F)cccc5F)c4)nn4ccccc34)n2)c1 [Example 188, 2,6-Difluoro-N-{3-[3-(2-{[3-({[2-(methylsulfonyl)ethyl]amino}-methyl)phenyl]amino}-4-pyrimidinyl)pyrazolo[1,5-a]pyridin-2-yl]phenyl}benzamide] | < 100 | > 1000 | +++ (B) (at least one pIC50 measurement of greater than 7 against either ErbB2 or EGFR) |
| CS(=O)(=O)CCNCc1cccc(Nc2nccc(-c3c(-c4cccc(NC(=O)c5cc(F)ccc5F)c4)nn4ccccc34)n2)c1 [Example 187, 2,5-Difluoro-N-{3-[3-(2-{[3-({[2-(methylsulfonyl)ethyl]amino}-methyl)phenyl]amino}-4-pyrimidinyl)pyrazolo[1,5-a]pyridin-2-yl]phenyl}benzamide] | < 100 | 100 to 1000 | +++ (B) (at least one pIC50 measurement of greater than 7 against either ErbB2 or EGFR) |
| O=C(Nc1cccc(-c2nn3ccccc3c2-c2nc(Nc3cccc(F)c3)ncc2F)c1)c1c(F)cccc1F [Example 202, 2,6-difluoro-N-[3-(3-{5-fluoro-2-[(3-fluorophenyl)amino]-4-pyrimidinyl}pyrazolo[1,5-a]pyridin-2-yl)phenyl]benzamide] | 100 to 1000 | > 1000 | ++ (B) (at least one pIC50 measurement greater than 6 against either ErbB2 or EGFR but no measurement greater than pIC50 of 7) |

Continued, in another order:

| IC50 [1] [nM] | IC50 (Colo205 tumor cell lines) [nM] | SMILES | Activity (Method): pIC50 class against ErbB2 or EGFR (ErbB2 or EGFR) |
| --- | --- | --- | --- |
| 100 to 1000 | > 1000 | CN(C)c1cccc2c(-c3ccnc(Nc4cccc(F)c4)n3)c(-c3cccc(NC(=O)c4c(F)cccc4F)c3)nn12.O=C(O)C(F)(F)F [Example 175, N-[3-(7-(Dimethylamino)-3-{2-[(3-fluorophenyl)amino]-4-pyrimidinyl}pyrazolo[1,5-a]pyridin-2-yl)phenyl]-2,6-difluorobenzamide trifluoroacetate] | +++ (B) (at least one pIC50 measurement of greater than 7 against either ErbB2 or EGFR) |
| 100 to 1000 | > 1000 | CN(C)CCOc1cccc(Nc2nccc(-c3c(-c4cccc(NC(=O)c5c(F)cccc5F)c4)nn4cc(C(F)(F)F)ccc34)n2)c1 [Example 194, N-{3-[3-{2-[(3-{[2-(Dimethylamino)ethyl]oxy}phenyl)amino]-4-pyrimidinyl}-6-(trifluoromethyl)pyrazolo[1,5-a]pyridin-2-yl]phenyl}-2,6-difluorobenzamide] | +++ (B) (at least one pIC50 measurement of greater than 7 against either ErbB2 or EGFR) |
| < 100 | > 1000 | CN(C)CCNCc1cccc(Nc2nccc(-c3c(-c4cccc(NC(=O)c5c(F)cccc5F)c4)nn4ccccc34)n2)c1 [Example 185, N-{3-[3-(2-{[3-({[2-(Dimethylamino)ethyl]amino}methyl)phenyl]-amino}-4-pyrimidinyl)pyrazolo[1,5-a]pyridin-2-yl]phenyl}-2,6-difluorobenzamide] | +++ (B) (at least one pIC50 measurement of greater than 7 against either ErbB2 or EGFR) |
